According to ChEMBL document CHEMBL2010767, “Agonists for the Chemokine Receptor CXCR4” (ACS Med Chem Lett, 2011):
Activity calls are given as the source filed them. The calls are words filed in the database; no cut-off is given here.

How the values were obtained:
[1] = biological target: T1, C-X-C chemokine receptor type 4 (Homo sapiens, UniProt P61073); assay: Displacement of [125I]-SDF-1alpha from human CXCR4 receptor expressed in HEK293 cells after 1 hr by gamma counting; assay type: cell-based
[2] = biological target: T1, C-X-C chemokine receptor type 4; assay: Agonist activity at CXCR4 receptor in human REH cells assessed as induction of chemotactic migration at 10 to 100 nM after 3 hrs; assay type: functional, cell-based
[3] = biological target: T1, C-X-C chemokine receptor type 4; assay: Agonist activity at CXCR4 receptor in human REH cells assessed as induction of chemotactic migration at 1 uM after 3 hrs; assay type: functional, cell-based

T1 sequence (P61073 whole entry): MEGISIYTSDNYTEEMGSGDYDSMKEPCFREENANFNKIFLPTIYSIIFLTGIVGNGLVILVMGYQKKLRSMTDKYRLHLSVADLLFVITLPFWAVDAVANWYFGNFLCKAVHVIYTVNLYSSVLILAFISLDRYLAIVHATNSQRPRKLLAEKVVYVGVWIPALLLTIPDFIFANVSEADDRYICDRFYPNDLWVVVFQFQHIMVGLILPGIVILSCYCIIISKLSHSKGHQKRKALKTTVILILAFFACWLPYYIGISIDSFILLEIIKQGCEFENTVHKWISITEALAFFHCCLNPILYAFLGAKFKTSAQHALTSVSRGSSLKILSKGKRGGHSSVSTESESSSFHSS

Row | Compound | IC50 [1] | Activity [2] | IC50 ([1]; hek293) | Activity [3]
1 | CC(C)C[C@H](NC(=O)[C@H](CO)NC(=O)[C@@H](NC(=O)[C@@H]1CCCN1C(=O)[C@@H](N)CCCCN)C(C)C)C(=O)N[C@@H](CO)C(=O)N[C@@H](Cc1ccc(O)cc1)C(=O)N[C@@H](CCCNC(=N)N)C(=O)N[C@@H](CO)C(=O)N1CCC[C@H]1C(=O)NCCCC[C@H](NC(=O)[C@@H]1CSSC[C@H](NC(=O)[C@H](Cc2ccc3ccccc3c2)NC(=O)[C@H](CCCNC(=N)N)NC(=O)[C@@H](N)CCCNC(=N)N)C(=O)N[C@@H](Cc2ccc(O)cc2)C(=O)N[C@@H](CCCNC(=N)N)C(=O)N[C@@H](CCCCN)C(=O)N[C@H](CCCCN)C(=O)N2CCC[C@H]2C(=O)N[C@@H](Cc2ccc(O)cc2)C(=O)N[C@@H](CCCNC(=N)N)C(=O)N[C@@H](CCCNC(=N)N)C(=O)C1)C(=O)O | 0.00957 µM | Active |  | 
2 | CC(C)C[C@H](NC(=O)[C@H](CO)NC(=O)[C@@H](NC(=O)[C@@H]1CCCN1C(=O)[C@@H](N)CCCCN)C(C)C)C(=O)N[C@@H](CO)C(=O)N[C@@H](Cc1ccc(O)cc1)C(=O)NCCCC[C@@H](NC(=O)[C@@H]1CSSC[C@H](NC(=O)[C@H](Cc2ccc3ccccc3c2)NC(=O)[C@H](CCCNC(=N)N)NC(=O)[C@@H](N)CCCNC(=N)N)C(=O)N[C@@H](Cc2ccc(O)cc2)C(=O)N[C@@H](CCCNC(=N)N)C(=O)N[C@@H](CCCCN)C(=O)N[C@H](CCCCN)C(=O)N2CCC[C@H]2C(=O)N[C@@H](Cc2ccc(O)cc2)C(=O)N[C@@H](CCCNC(=N)N)C(=O)N[C@@H](CCCNC(N)=O)C(=O)C1)C(=O)O |  |  | 0.17 µM | Active
